Source: patent publication US12643859B2, “Pyridyl oxycarboxylic acid oxime derivative and preparation method therefor, weeding composition and application thereof” (Qingdao Kingagroot Chemical Compound Co., Ltd., priority 2018, dated 2026)

Experiments:
Assay type in all cases: in vivo
[1] = tested on: Cyperus iria; test: Post-emergence test experiment, weed control; settings: post-emergence spray, 3 weeks in greenhouse; for Activity level (fresh weight growth inhibition rate), Cyperus iria: 600 g a.i./ha plus water 450 kg/ha
Experimental: (§1) The above described growth inhibition rate is fresh weight inhibition rate.
(§2) Post-emergence test experiment: Monocotyledonous and dicotyledonous weed seeds and main crop seeds (i. e. wheat, corn, rice, soybean, cotton, oilseed, millet and sorghum.) were put into a plastic pot loaded with soil. Then covered with 0.5-2 cm soil, the seeds were allowed to grow in good greenhouse environment. The test plants were treated at 2-3 leaf stage 2 weeks after sowing. The test compounds of the invention were dissolved with acetone respectively, then added with tween-80, and using 1.5 liters per hectare of an emulsible concentrate of methyl oleate as a synergist, and diluted by certain amount of water to certain concentration. The solution was sprayed to the plants with a sprayer. Then the plants were cultured for 3 weeks in the greenhouse, and the experiment result of weed controlling effect was listed in tables 3-4.

[2] = tested on: Japonica rice; test: Post-emergence test experiment, crop selectivity; settings: for Activity level (fresh weight growth inhibition rate), Japonica rice: post-emergence spray, 3 weeks in greenhouse
Experimental: as §1, §2

[3] = tested on: Indica rice; test: Post-emergence test experiment, crop selectivity; settings: post-emergence spray, 3 weeks in greenhouse
Experimental: as §1, §2

[4] = tested on: Monocotyledonous and dicotyledonous weed seeds and main crop seeds; test: Post-emergence test experiment (Table 3, 1000 g a.i./ha); settings: 3 weeks in greenhouse, fresh weight inhibition
Procedure, shortened: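 Weeds and crops (wheat, corn, rice, soybean, cotton, oilseed, millet, sorghum) grown in soil in the greenhouse and sprayed post-emergence at 2–3 leaf stage, 2 weeks after sowing. Compound in acetone with tween-80 plus methyl oleate emulsible concentrate (1.5 L/ha) as synergist, diluted in water. Fresh weight inhibition scored after 3 weeks.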

[5] = 600 g a.i./ha plus water 450 kg/ha

Selectivity to / inhibition of rice (in words) ([2]; post-emergence, regardless of japonica or indica rice) | SMILES | Activity level (fresh weight growth inhibition rate), Cyperus iria [1] | Activity level (fresh weight growth inhibition rate), Japonica rice [2, 5] | Activity level (fresh weight growth inhibition rate), Indica rice [3, 5] | Activity level (growth inhibition rate) Digitaria sanguinalis [4] | Activity level (growth inhibition rate) Echinochloa crusgalli [4] | Activity level (growth inhibition rate) Galium spurium [4] | Activity level (growth inhibition rate) Leptochloa chinensis [4] | Activity level (growth inhibition rate) Monochoria Vaginalis [4] | Activity level (growth inhibition rate) Murdannia triquetra [4] | Activity level (growth inhibition rate) Setaria viridis [4] | inhibition at 300 g/ha ([1]; Cyperus iria, 504 h, 300 g a.i./ha, read-out: Activity level (fresh weight growth inhibition rate), Cyperus iria) | Activity level (fresh weight growth inhibition rate), Japonica rice ([2]; 300 g a.i./ha) | Activity level (fresh weight growth inhibition rate), Indica rice ([3]; 300 g a.i./ha)
 | CCCC(Cl)=NOC(=O)C(C)Oc1nc(F)c(Cl)c(N)c1Cl (centres unmarked) [Compound 75] | 5 (Level 5: the growth inhibition rate is greater than 85%) | 0 (Level 0: the growth inhibition rate is less than 5%) | 0 (Level 0: the growth inhibition rate is less than 5%) | 5 (Level 5: the growth inhibition rate is greater than 85%) | 5 (Level 5: the growth inhibition rate is greater than 85%) | 5 (Level 5: the growth inhibition rate is greater than 85%) | 5 (Level 5: the growth inhibition rate is greater than 85%) | 5 (Level 5: the growth inhibition rate is greater than 85%) | 5 (Level 5: the growth inhibition rate is greater than 85%) | 5 (Level 5: the growth inhibition rate is greater than 85%) |  |  | 
 | CC(Oc1nc(F)c(Cl)c(N)c1Cl)C(=O)ON=C(C#N)c1ccc(Cl)cc1 (centres unmarked) [Compound 87] | 5 (Level 5: the growth inhibition rate is greater than 85%) | 0 (Level 0: the growth inhibition rate is less than 5%) | 0 (Level 0: the growth inhibition rate is less than 5%) | 5 (Level 5: the growth inhibition rate is greater than 85%) | 5 (Level 5: the growth inhibition rate is greater than 85%) | 5 (Level 5: the growth inhibition rate is greater than 85%) | 5 (Level 5: the growth inhibition rate is greater than 85%) | 5 (Level 5: the growth inhibition rate is greater than 85%) | 5 (Level 5: the growth inhibition rate is greater than 85%) | 5 (Level 5: the growth inhibition rate is greater than 85%) |  |  | 
 | CC(Oc1nc(F)c(Cl)c(N)c1Cl)C(=O)ON=C(c1ccc(N(C)C)cc1)[N+](=O)[O-] (centres unmarked) [Compound 90] | 5 (Level 5: the growth inhibition rate is greater than 85%) | 0 (Level 0: the growth inhibition rate is less than 5%) | 0 (Level 0: the growth inhibition rate is less than 5%) | 5 (Level 5: the growth inhibition rate is greater than 85%) | 5 (Level 5: the growth inhibition rate is greater than 85%) | 5 (Level 5: the growth inhibition rate is greater than 85%) | 5 (Level 5: the growth inhibition rate is greater than 85%) | 5 (Level 5: the growth inhibition rate is greater than 85%) | 5 (Level 5: the growth inhibition rate is greater than 85%) | 5 (Level 5: the growth inhibition rate is greater than 85%) |  |  | 
 | CC=COc1ccc(C(=NOC(=O)C(C)Oc2nc(F)c(Cl)c(N)c2Cl)C(=O)OCC)cc1 (centres unmarked) [Compound 92] | 5 (Level 5: the growth inhibition rate is greater than 85%) | 0 (Level 0: the growth inhibition rate is less than 5%) | 0 (Level 0: the growth inhibition rate is less than 5%) | 5 (Level 5: the growth inhibition rate is greater than 85%) | 5 (Level 5: the growth inhibition rate is greater than 85%) | 5 (Level 5: the growth inhibition rate is greater than 85%) | 5 (Level 5: the growth inhibition rate is greater than 85%) | 5 (Level 5: the growth inhibition rate is greater than 85%) | 5 (Level 5: the growth inhibition rate is greater than 85%) | 5 (Level 5: the growth inhibition rate is greater than 85%) |  |  | 
 | CCC(=NOC(=O)C(C)Oc1nc(F)c(Cl)c(N)c1Cl)C(=O)NCc1ccc(C)cc1 (centres unmarked) [Compound 100] | 5 (Level 5: the growth inhibition rate is greater than 85%) | 0 (Level 0: the growth inhibition rate is less than 5%) | 0 (Level 0: the growth inhibition rate is less than 5%) | 5 (Level 5: the growth inhibition rate is greater than 85%) | 5 (Level 5: the growth inhibition rate is greater than 85%) | 5 (Level 5: the growth inhibition rate is greater than 85%) | 5 (Level 5: the growth inhibition rate is greater than 85%) | 5 (Level 5: the growth inhibition rate is greater than 85%) | 5 (Level 5: the growth inhibition rate is greater than 85%) | 5 (Level 5: the growth inhibition rate is greater than 85%) |  |  | 
 | CC(Oc1nc(F)c(Cl)c(N)c1Cl)C(=O)ON=C(C(=O)NCc1ccco1)c1ccccc1 (centres unmarked) [Compound 104] | 5 (Level 5: the growth inhibition rate is greater than 85%) | 0 (Level 0: the growth inhibition rate is less than 5%) | 0 (Level 0: the growth inhibition rate is less than 5%) | 5 (Level 5: the growth inhibition rate is greater than 85%) | 5 (Level 5: the growth inhibition rate is greater than 85%) | 5 (Level 5: the growth inhibition rate is greater than 85%) | 5 (Level 5: the growth inhibition rate is greater than 85%) | 5 (Level 5: the growth inhibition rate is greater than 85%) | 5 (Level 5: the growth inhibition rate is greater than 85%) | 5 (Level 5: the growth inhibition rate is greater than 85%) |  |  | 
 | CC(Oc1nc(F)c(Cl)c(N)c1Cl)C(=O)ON=C1CCCC1 (centres unmarked) [Compound 117] | 5 (Level 5: the growth inhibition rate is greater than 85%) | 0 (Level 0: the growth inhibition rate is less than 5%) | 0 (Level 0: the growth inhibition rate is less than 5%) | 5 (Level 5: the growth inhibition rate is greater than 85%) | 5 (Level 5: the growth inhibition rate is greater than 85%) | 5 (Level 5: the growth inhibition rate is greater than 85%) | 5 (Level 5: the growth inhibition rate is greater than 85%) | 5 (Level 5: the growth inhibition rate is greater than 85%) | 5 (Level 5: the growth inhibition rate is greater than 85%) | 5 (Level 5: the growth inhibition rate is greater than 85%) |  |  | 
great inhibition to rice | CC(Oc1nc(F)c(Cl)c(N)c1Cl)C(=O)O (centres unmarked) [Control compound A, reference compound] | 5 (Level 5: the growth inhibition rate is greater than 85%) | 3 (Level 3: the growth inhibition rate is equal to or greater than 40% and less than 60%) | 3 (Level 3: the growth inhibition rate is equal to or greater than 40% and less than 60%) |  |  |  |  |  |  |  | 60 to 85% | 2 (Level 2: the growth inhibition rate is equal to or greater than 20% and less than 40%) | 3 (Level 3: the growth inhibition rate is equal to or greater than 40% and less than 60%)
